One block for each molecule: values may come before it.
Experiment: Water uptake experiments (Dynamic Vapor Sorption, water sorption/desorption isotherms)
Format: physicochemical
Conditions: for Desorptoin % Weight Change: reverse stepwise RH decrease; for Sorption % Weight Change: stepwise RH increase
Method: Water sorption experiments are performed on a Dynamic Vapor Sorption (DVS) apparatus (DVS-1000 manufactured by Surface Measurements Systems, Inc.). Experiments are performed at 25° C. by initially drying the material of interest (about 10 mg sample) from 30% relative humidity (RH) (ambient room condition) to about 9% RH in a stepwise fashion (10% RH step) by purging with dry nitrogen until no further weight change was observed. The samples are then exposed to a stepwise (10% RH steps) increase in RH from about 0 to about 90% RH. Each successive step is initiated when the change in weight over time at the relative humidity was less than 0.0003% ((dm/dt)/m0×100, where m is mass in mg, m0 is initial mass, and t is time in minutes). The sample is then taken through the reverse of the stepwise % RH increase. The data are collected on a computer and analyzed using SMS' proprietary MS-Excel macro interface software.

Desorptoin % Weight Change (0.45 % RH at 25° C.): 0.057%
Sorption % Weight Change (0.45 % RH at 25° C.): 0.057%
Desorptoin % Weight Change (9.2 % RH at 25° C.): 0.997%
Sorption % Weight Change (9.2 % RH at 25° C.): 0.9575%
Desorptoin % Weight Change (20.05 % RH at 25° C.): 2.1025%
Sorption % Weight Change (20.05 % RH at 25° C.): 2.016%
Desorptoin % Weight Change (29.75 % RH at 25° C.): 3.599%
Sorption % Weight Change (29.75 % RH at 25° C.): 3.4105%
Desorptoin % Weight Change (39.4 % RH at 25° C.): 4.743%
Sorption % Weight Change (39.4 % RH at 25° C.): 4.282%
Desorptoin % Weight Change (49.55 % RH at 25° C.): 5.321%
Sorption % Weight Change (49.55 % RH at 25° C.): 4.928%
Desorptoin % Weight Change (59.4 % RH at 25° C.): 5.726%
Sorption % Weight Change (59.4 % RH at 25° C.): 5.356%
Desorptoin % Weight Change (69.05 % RH at 25° C.): 6.054%
Sorption % Weight Change (69.05 % RH at 25° C.): 5.706%
Desorptoin % Weight Change (78.8 % RH at 25° C.): 6.357%
Sorption % Weight Change (78.8 % RH at 25° C.): 6.109%
Desorptoin % Weight Change (88.5 % RH at 25° C.): 6.734%
Sorption % Weight Change (88.5 % RH at 25° C.): 6.734%
Compound: CCCCC1(CCCC)CS(=O)(=O)c2ccc(N(C)C)cc2[C@@H](c2ccc(OCc3ccc(C[N+]45CCN(CC4)CC5)cc3)cc2)[C@H]1O.[Cl-] [Form I, (4R,5R)-1-((4-(4-(3,3-dibutyl-7-(dimethylamino)-2,3,4,5-tetrahydro-4-hydroxy-1,1-dioxido-1-benzithiepin-5-yl)phenoxy)methyl)phenyl)methyl-4-aza-1-azoniabicyclo[2.2.2]octane chloride]

Desorptoin % Weight Change (1.3 % RH at 25° C.): −0.02695%
Sorption % Weight Change (1.3 % RH at 25° C.): −0.02695%
Desorptoin % Weight Change (9.35 % RH at 25° C.): 0.04235%
Sorption % Weight Change (9.35 % RH at 25° C.): 0.04715%
Desorptoin % Weight Change (20.25 % RH at 25° C.): 0.09715%
Sorption % Weight Change (20.25 % RH at 25° C.): 0.1058%
Desorptoin % Weight Change (29.75 % RH at 25° C.): 0.1444%
Sorption % Weight Change (29.75 % RH at 25° C.): 0.1376%
Desorptoin % Weight Change (39.55 % RH at 25° C.): 0.1866%
Sorption % Weight Change (39.55 % RH at 25° C.): 0.1809%
Desorptoin % Weight Change (49.7 % RH at 25° C.): 0.2636%
Sorption % Weight Change (49.7 % RH at 25° C.): 0.2386%
Desorptoin % Weight Change (59.5 % RH at 25° C.): 0.331%
Sorption % Weight Change (59.5 % RH at 25° C.): 0.304%
Desorptoin % Weight Change (69.1 % RH at 25° C.): 0.3983%
Sorption % Weight Change (69.1 % RH at 25° C.): 0.3945%
Desorptoin % Weight Change (78.65 % RH at 25° C.): 0.4849%
Sorption % Weight Change (78.65 % RH at 25° C.): 0.4695%
Desorptoin % Weight Change (88.5 % RH at 25° C.): 0.6446%
Sorption % Weight Change (88.5 % RH at 25° C.): 0.6446%
weight gain of dry sample (of its own weight) when equilibrated under humid air (dry sample equilibrated under 80% relative humidity (RH) air at 25° C.): less than 1%
hygroscopicity (dry sample, 80% RH air at 25° C.): essentially nonhygroscopic
Compound: CCCCC1(CCCC)CS(=O)(=O)c2ccc(N(C)C)cc2[C@@H](c2ccc(OCc3ccc(C[N+]45CCN(CC4)CC5)cc3)cc2)[C@H]1O.[Cl-] [Form II, (4R,5R)-1-((4-(4-(3,3-dibutyl-7-(dimethylamino)-2,3,4,5-tetrahydro-4-hydroxy-1,1-dioxido-1-benzithiepin-5-yl)phenoxy)methyl)phenyl)methyl-4-aza-1-azoniabicyclo[2.2.2]octane chloride]
